Experimental data reported in ChEMBL document CHEMBL4414672, “Synthesis of certain benzothieno[3,2-d]pyrimidine derivatives as a selective SIRT2 inhibitors” (Eur J Med Chem, 2020).

Columns and labels:
Assay type in all cases: functional
MCF7 = test: Growth inhibition of human MCF7 cells at 10^-5 M incubated for 48 hrs by sulforhodamine B assay; details: MCF7, 48 h, read-out: GI
KM12 = test: Growth inhibition of human KM12 cells at 10^-5 M incubated for 48 hrs by sulforhodamine B assay; details: KM12, 48 h, read-out: GI
SW-620 = test: Growth inhibition of human SW620 cells at 10^-5 M incubated for 48 hrs by sulforhodamine B assay; details: SW-620, 48 h, read-out: GI
DU-145 = test: Growth inhibition of human DU145 cells at 10^-5 M incubated for 48 hrs by sulforhodamine B assay; details: DU-145, 48 h, read-out: GI
NCI-H322M = test: Growth inhibition of human NCI-H322M cells at 10^-5 M incubated for 48 hrs by sulforhodamine B assay; details: read-out: GI
SK-MEL-28 = test: Growth inhibition of human SK-MEL-28 cells at 10^-5 M incubated for 48 hrs by sulforhodamine B assay; details: SK-MEL-28, 48 h, read-out: GI
K562 = test: Growth inhibition of human K562 cells at 10^-5 M incubated for 48 hrs by sulforhodamine B assay; details: K562, 48 h, read-out: GI
TK-10 = test: Growth inhibition of human TK10 cells at 10^-5 M incubated for 48 hrs by sulforhodamine B assay; details: TK-10, 48 h, read-out: GI
A549 = test: Growth inhibition of human A549/ATCC cells at 10^-5 M incubated for 48 hrs by sulforhodamine B assay; details: A549, 48 h, read-out: GI
HOP-62 = test: Growth inhibition of human HOP62 cells at 10^-5 M incubated for 48 hrs by sulforhodamine B assay; details: HOP-62, 48 h, read-out: GI
EKVX = test: Growth inhibition of human EKVX cells at 10^-5 M incubated for 48 hrs by sulforhodamine B assay; details: read-out: GI
ACHN = test: Growth inhibition of human ACHN cells at 10^-5 M incubated for 48 hrs by sulforhodamine B assay; details: read-out: GI
SF-295 = test: Growth inhibition of human SF295 cells at 10^-5 M incubated for 48 hrs by sulforhodamine B assay; details: SF-295, 48 h, read-out: GI
CCRF-CEM = test: Growth inhibition of human CCRF-CEM cells at 10^-5 M incubated for 48 hrs by sulforhodamine B assay; details: read-out: GI
T47D = test: Growth inhibition of human T47D cells at 10^-5 M incubated for 48 hrs by sulforhodamine B assay; details: read-out: GI
MDA-MB-468 = test: Growth inhibition of human MDA-MB-468 cells at 10^-5 M incubated for 48 hrs by sulforhodamine B assay; details: MDA-MB-468, 48 h, read-out: GI
SR = test: Growth inhibition of human SR cells at 10^-5 M incubated for 48 hrs by sulforhodamine B assay; details: read-out: GI
Malme-3M = test: Growth inhibition of human MALME-3M cells at 10^-5 M incubated for 48 hrs by sulforhodamine B assay; details: read-out: GI
OVCAR-4 = test: Growth inhibition of human OVCAR4 cells at 10^-5 M incubated for 48 hrs by sulforhodamine B assay; details: OVCAR-4, 48 h, read-out: GI
SF-268 = test: Growth inhibition of human SF268 cells at 10^-5 M incubated for 48 hrs by sulforhodamine B assay; details: SF-268, 48 h, read-out: GI
OVCAR-3 = test: Growth inhibition of human OVCAR3 cells at 10^-5 M incubated for 48 hrs by sulforhodamine B assay; details: OVCAR-3, 48 h, read-out: GI
Hs-578T = test: Growth inhibition of human Hs 578T cells at 10^-5 M incubated for 48 hrs by sulforhodamine B assay; details: read-out: GI
OVCAR-8 = test: Growth inhibition of human OVCAR8 cells at 10^-5 M incubated for 48 hrs by sulforhodamine B assay; details: OVCAR-8, 48 h, read-out: GI
HCT-116 = test: Growth inhibition of human HCT116 cells at 10^-5 M incubated for 48 hrs by sulforhodamine B assay; details: HCT-116, 48 h, read-out: GI
NCI-H522 = test: Growth inhibition of human NCI-H522 cells at 10^-5 M incubated for 48 hrs by sulforhodamine B assay; details: NCI-H522, 48 h, read-out: GI
MDA-MB-435 = test: Growth inhibition of human MDA-MB-435 cells at 10^-5 M incubated for 48 hrs by sulforhodamine B assay; details: MDA-MB-435, 48 h, read-out: GI
MDA-MB-231 = test: Growth inhibition of human MDA-MB-231 cells at 10^-5 M incubated for 48 hrs by sulforhodamine B assay; details: MDA-MB-231, 48 h, read-out: GI
CAKI-1 = test: Growth inhibition of human Caki1 cells at 10^-5 M incubated for 48 hrs by sulforhodamine B assay; details: CAKI-1, 48 h, read-out: GI
IGROV-1 = test: Growth inhibition of human IGROV1 cells at 10^-5 M incubated for 48 hrs by sulforhodamine B assay; details: IGROV-1, 48 h, read-out: GI
NCI-H23 = test: Growth inhibition of human NCI-H23 cells at 10^-5 M incubated for 48 hrs by sulforhodamine B assay; details: NCI-H23, 48 h, read-out: GI
HL-60(TB) = test: Growth inhibition of human HL-60(TB) cells at 10^-5 M incubated for 48 hrs by sulforhodamine B assay; details: HL-60, 48 h, read-out: GI
MOLT-4 = test: Growth inhibition of human MOLT4 cells at 10^-5 M incubated for 48 hrs by sulforhodamine B assay; details: MOLT-4, 48 h, read-out: GI
A498 = test: Growth inhibition of human A498 cells at 10^-5 M incubated for 48 hrs by sulforhodamine B assay; details: A498, 48 h, read-out: GI
HOP-92 = test: Growth inhibition of human HOP92 cells at 10^-5 M incubated for 48 hrs by sulforhodamine B assay; details: HOP-92, 48 h, read-out: GI
NCI-H226 = test: Growth inhibition of human NCI-H226 cells at 10^-5 M incubated for 48 hrs by sulforhodamine B assay; details: NCI-H226, 48 h, read-out: GI
HT-29 = test: Growth inhibition of human HT-29 cells at 10^-5 M incubated for 48 hrs by sulforhodamine B assay; details: HT-29, 48 h, read-out: GI
UO-31 = test: Growth inhibition of human UO31 cells at 10^-5 M incubated for 48 hrs by sulforhodamine B assay; details: UO-31, 48 h, read-out: GI
M14 = test: Growth inhibition of human M14 cells at 10^-5 M incubated for 48 hrs by sulforhodamine B assay; details: M14, 48 h, read-out: GI
BT-549 = test: Growth inhibition of human BT549 cells at 10^-5 M incubated for 48 hrs by sulforhodamine B assay; details: BT-549, 48 h, read-out: GI

SMILES	inhibition of growth at 10 µM (MCF7)	inhibition of growth at 10 µM (KM12)	inhibition of growth at 10 µM (SW-620)	inhibition of growth at 10 µM (DU-145)	inhibition of growth at 10 µM (NCI-H322M)	inhibition of growth at 10 µM (SK-MEL-28)	inhibition of growth at 10 µM (K562)	inhibition of growth at 10 µM (TK-10)	inhibition of growth at 10 µM (A549)	inhibition of growth at 10 µM (HOP-62)	inhibition of growth at 10 µM (EKVX)	inhibition of growth at 10 µM (ACHN)	inhibition of growth at 10 µM (SF-295)	inhibition of growth at 10 µM (CCRF-CEM)	inhibition of growth at 10 µM (T47D)	inhibition of growth at 10 µM (MDA-MB-468)	inhibition of growth at 10 µM (SR)	inhibition of growth at 10 µM (Malme-3M)	inhibition of growth at 10 µM (OVCAR-4)	inhibition of growth at 10 µM (SF-268)	also measured
O=C1SC2=Nc3c(sc4ccc(Cl)cc34)C(c3ccc4ccccc4c3)N2C1=O (stereo not drawn)	68.7%	7.8%	4.8%	-1.57%	13.9%	-13.2%	12%	-28.7%	1.04%	8.58%	12.9%	14.5%	-2.51%	-5.01%	24.5%	11.2%	26.4%	12.9%	23.6%	12.7%	inhibition of growth at 10 µM (OVCAR-3): 9.4%; inhibition of growth at 10 µM (Hs-578T): 1.4%; inhibition of growth at 10 µM (OVCAR-8): 5.42%; inhibition of growth at 10 µM (HCT-116): 23.4%; inhibition of growth at 10 µM (NCI-H522): 16.6%; inhibition of growth at 10 µM (MDA-MB-435): 2.92%; inhibition of growth at 10 µM (MDA-MB-231): 18.1%; inhibition of growth at 10 µM (CAKI-1): 30.1%; inhibition of growth at 10 µM (IGROV-1): 26.4%; inhibition of growth at 10 µM (NCI-H23): 20.5%; inhibition of growth at 10 µM (HL-60(TB)): -4.12%; inhibition of growth at 10 µM (MOLT-4): 11.9%; inhibition of growth at 10 µM (A498): 13.1%; inhibition of growth at 10 µM (HOP-92): 16.5%; inhibition of growth at 10 µM (NCI-H226): 24%; inhibition of growth at 10 µM (HT-29): -2.87%; inhibition of growth at 10 µM (UO-31): 44.4%; inhibition of growth at 10 µM (M14): 7.5%; inhibition of growth at 10 µM (BT-549): -19.9%
Cc1cc(C)n(C2=Nc3c(sc4ccc(Cl)cc34)C(c3cccc([N+](=O)[O-])c3)N2)n1 (stereo not drawn)	20.6%	2.61%	-3.97%	-11.3%	0.71%	-16%	4.14%	-12.7%	3.8%	18.2%	24.2%	11.2%	2.13%	-7.22%	13.2%	8.16%	-4.84%	-2.21%	-2.96%	1.15%	inhibition of growth at 10 µM (OVCAR-3): -2.22%; inhibition of growth at 10 µM (Hs-578T): 0.17%; inhibition of growth at 10 µM (OVCAR-8): 0.5%; inhibition of growth at 10 µM (HCT-116): 5.98%; inhibition of growth at 10 µM (NCI-H522): 10.8%; inhibition of growth at 10 µM (MDA-MB-435): -3.52%; inhibition of growth at 10 µM (MDA-MB-231): 18.8%; inhibition of growth at 10 µM (CAKI-1): 26.4%; inhibition of growth at 10 µM (IGROV-1): 20.6%; inhibition of growth at 10 µM (NCI-H23): 23%; inhibition of growth at 10 µM (HL-60(TB)): -2.76%; inhibition of growth at 10 µM (MOLT-4): 16.5%; inhibition of growth at 10 µM (A498): 1.15%; inhibition of growth at 10 µM (HOP-92): -4.25%; inhibition of growth at 10 µM (NCI-H226): 17.1%; inhibition of growth at 10 µM (HT-29): -2.6%; inhibition of growth at 10 µM (UO-31): 43.7%; inhibition of growth at 10 µM (M14): -4.17%; inhibition of growth at 10 µM (BT-549): -17.8%
